Experimental data from US20090007283A1, “Transgenic Rodents Selectively Expressing Human B1 Bradykinin Receptor Protein” (priority 2003, published 2009).
pKi: −log10 of the molar value.

Legend:
[1] = target: T1, human B1 bradykinin receptor (human) (UniProt P46663); assay: cell-based or functional assay
T1 sequence (looked up): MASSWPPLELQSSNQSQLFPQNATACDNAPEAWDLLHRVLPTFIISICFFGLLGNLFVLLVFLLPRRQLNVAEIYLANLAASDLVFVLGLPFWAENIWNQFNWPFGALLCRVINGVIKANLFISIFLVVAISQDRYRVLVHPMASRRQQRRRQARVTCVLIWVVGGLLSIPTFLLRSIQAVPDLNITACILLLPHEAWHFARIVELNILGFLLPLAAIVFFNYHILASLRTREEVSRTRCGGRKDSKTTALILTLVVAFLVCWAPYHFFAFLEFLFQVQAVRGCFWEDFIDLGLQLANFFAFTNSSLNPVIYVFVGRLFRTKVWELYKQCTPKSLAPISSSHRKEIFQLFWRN

human B1 receptor = target: T2, human B1 receptor (Homo sapiens, UniProt P46663); assay: Functional assay: DAK-induced contraction of fundus and ileum tissue from line 13 mice homozygous for the human B1 receptor gene
T2 construct: from tissue; host or cells: stomach fundus and ileum of line 13 mice homozygous for the human B1 receptor knock-in (targeting vector pB1R-KI2)
T2 sequence (P46663 1-353): T1 sequence (looked up)
Experimental: A functional assay was carried out twice on homozygous human b1 mouse fundus and ileum tissue to evaluate its B1 receptor activity in line 13, a mouse line homozygous for replacement of the mouse B1 gene with the human B1 receptor gene. A selective human B1 receptor compound (Compound #1) was tested for antagonistic activity against the receptor from these knock-in mice. Specifically, two homozygous mice were euthanized with CO2. Their stomach and ileum were removed and the fundic portion was divided in half by cutting an incision along the greater curvature. A medial longitudinal strip about 1 mm×0.6 cm was obtained by making cut along the midline incision. Two fundic strips were obtained from each stomach. The ileum was cut about 4 cm from the cecum. Each ileum is divided into two pieces and whole muscle was used. […] Each piece of ileum was tied one end to a glass rod with silk 4-0 and the other end to the Statham—Gould force transducer. One gram tension was applied to each tissue and contraction was recorded by a Hewlett-Packard 7758 recorder. All tissues receive 50 mM KCl at the end of 1 hr equilibrium for maximal response. The tissues are washed every 20 min for one hour. 30 nM of Compound #1 was added to two treated ileum or two treated fundus tissues and incubated for one hour. 0.1 μM M422 and 1 μM thiorphan are added to the bath 30 min before DAK dosing. A cumulative dose-response of DAK (10-^10M to 3×10^−5M) is carried out after pre-incubation.
DAK is diluted in Krebs solution. Full log dilution is made by adding 25 μl in […]. Compound #1 is diluted in DMSO.

B1 receptor = target: T3, B1 receptor (Mus musculus, UniProt Q61125); assay: DAK response of the stomach fundus in wild type mice
T3 construct: from tissue; host or cells: stomach fundus of wild type mice
T3 sequence (Q61125 1-334): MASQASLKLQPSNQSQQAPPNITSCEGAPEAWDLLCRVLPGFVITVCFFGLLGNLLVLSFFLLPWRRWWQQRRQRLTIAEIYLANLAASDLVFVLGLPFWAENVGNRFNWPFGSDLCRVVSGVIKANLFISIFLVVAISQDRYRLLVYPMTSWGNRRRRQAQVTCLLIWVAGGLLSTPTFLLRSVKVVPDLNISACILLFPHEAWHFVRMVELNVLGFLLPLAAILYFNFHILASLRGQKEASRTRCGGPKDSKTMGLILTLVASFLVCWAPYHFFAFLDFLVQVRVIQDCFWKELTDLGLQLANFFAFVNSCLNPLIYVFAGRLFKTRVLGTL
Source text: This phenotype is detailed herein via a functional assay showing the effect of a selective antagonist of the human B1 receptor. […] Therefore, the transgenic mice of the present invention, including but not limited to the humanized mice exemplified herein, will be useful to evaluate the efficacy of human selective compounds in both in vitro and in vivo assays. The addition of exogenous agonist, or the natural release of endogenous agonist resulting from a stimulus, may activate the human receptor. The ability of human selective compounds to antagonize the activation of the receptor will permit a determination of the efficacy of the compound in these animal models. To this end, the humanized B1 transgenic models as described herein will be useful to screen any potential modulator of receptor activity (e.g., antagonists or agonists), including but not necessarily limited to peptides, proteins, or non-proteinaceous organic or inorganic molecules. The transgenic animals of the present invention provide for improved models to evaluate the efficacy of human selective compounds in both in non-human animal models, such as rodents humanized for expression of the B1 receptor. […] Even if successful, the properties of compounds selective for humans could not be assessed. […]

hb1 = target: T4, hb1 (Homo sapiens, UniProt P46663); assay: binding data, hb1; settings: human B1 receptor; kind of constant not given
T4 sequence (P46663 1-353): T1 sequence (looked up)

rat b1 = target: T5, rat b1 (Rattus norvegicus, UniProt P97583); assay: binding data, rat b1; settings: rat B1 receptor; kind of constant not given
T5 sequence (P97583 1-337): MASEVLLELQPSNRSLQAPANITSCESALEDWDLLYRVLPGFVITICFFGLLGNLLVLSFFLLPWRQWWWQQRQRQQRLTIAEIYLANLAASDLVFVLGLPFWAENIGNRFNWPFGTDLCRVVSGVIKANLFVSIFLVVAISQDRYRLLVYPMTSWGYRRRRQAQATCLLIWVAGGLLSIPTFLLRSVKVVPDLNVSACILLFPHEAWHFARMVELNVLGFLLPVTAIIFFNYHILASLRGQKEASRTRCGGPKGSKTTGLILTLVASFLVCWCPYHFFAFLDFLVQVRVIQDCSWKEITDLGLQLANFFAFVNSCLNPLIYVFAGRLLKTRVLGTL

“des-Arg^10 kallidin (from UniProt P01042 380-388) (peptide)” gave an EC50 of des-arg^10-kallidin, contraction of homozygous mouse ileum, Control (n = 2), Experiment #1 [1] of 4 nM.

“des-Arg^10 kallidin [des-arg^10-kallidin, reference compound]” was tested, and the DAK contractile response (human B1 receptor; Line #13 homozygous mice, compared with wild type) was “full DAK contractile responses”.

With `O=C(C[C@@H]1C(=O)NCCN1S(=O)(=O)c1cccc2c1NCCC2)NCCc1ccc(C2=NCCN2)cc1` [Compound #1] the Kb (human B1 receptor; homozygous mouse fundus, Experiment #2 combined with Experiment #1 (n = 4)) was 0.25 nM, the Kb (human B1 receptor; homozygous mouse fundus, line 13, Experiment #1, 30 nM antagonist vs DAK) was 0.27 nM and the Kb (human B1 receptor; homozygous mouse fundus, line 13, Experiment #2, 30 nM antagonist vs DAK) was 0.23 nM. For the same compound, the Kb (human B1 receptor; homozygous mouse ileum, Experiment #2 combined with Experiment #1 (n = 4)) was 0.09 nM, the Kb (human B1 receptor; homozygous mouse ileum, line 13, Experiment #1, 30 nM antagonist vs DAK) was 0.11 nM and the Kb (human B1 receptor; homozygous mouse ileum, line 13, Experiment #2, 30 nM antagonist vs DAK) was 0.21 nM. The “sensitivity of the DAK response to the human B1 selective antagonist” value (B1 receptor) was “insensitive”, the pKi (hb1) was 10.40 and the pKi (rat b1) was 6.23.
